# Measurements taken from US20180313858A1, “QUANTIFICATION OF DRUGS IN BIOLOGICAL SAMPLES” (Indivior UK Limited, priority 2015, published 2018).
# Marks after values point to notes of the source that are not given here.
# Legend:
# [1] = human, in vivo
# [2] = clinical; conditions: human, in vivo
structure (smiles),measurement,setting,value
C=CCN1CC[C@]23c4c5ccc(O)c4O[C@H]2C(=O)CC[C@@]3(O)[C@H]1C5 [naloxone],plasma concentration,[1],0.068 ng/mL
same,t1/2 (apparent terminal half-life),[1],2.21 (61.1)^f h
same,time for which analyte was quantifiable in plasma,[1],36 h
same,AUC(0-inf),[2],0.0772 ng·h/mL
same,AUC(0-t),[2],0.0681 ng·h/mL
same,Cmax,[2],0.0266 ng/mL
same,Tmax,[2],45 min
